Starred links: 1 amine or outer side, 2 acyl side, 3 side chain; linkers in the order of their positions; H or OH if unused. Positions of bridges follow the written chain, without caps; N, C: chain ends. Non-standard residues stand in square brackets, D forms with d. Residues, ends and D or L forms follow the SMILES beside them. *: point of attachment. X1 = O=C([C@@H]1C[C@H](N[*:3])CN1[*:1])[*:2]; mXylylene = c1cc(C[*:1])cc(C[*:2])c1; oXylylene = c1ccc(C[*:2])c(C[*:1])c1; X6 = c1ccc2nc(C[*:2])c(C[*:1])nc2c1; Stearoyl = CCCCCCCCCCCCCCCCCC(=O)*; pXylylene = c1cc(C[*:2])ccc1C[*:1]; βAla = NCCC(=O)O

For one experiment, the target named is Keap1-Maltose Binding Protein (MBP tag) (Homo sapiens, UniProt Q14145). As to the kind of experiment: Nrf2-Keap1 HTRF (TR-FRET) binding assay: displacement of biotinylated ETGE peptide from Keap1-MBP.
Chain of Keap1-Maltose Binding Protein (MBP tag) (Q14145 whole entry): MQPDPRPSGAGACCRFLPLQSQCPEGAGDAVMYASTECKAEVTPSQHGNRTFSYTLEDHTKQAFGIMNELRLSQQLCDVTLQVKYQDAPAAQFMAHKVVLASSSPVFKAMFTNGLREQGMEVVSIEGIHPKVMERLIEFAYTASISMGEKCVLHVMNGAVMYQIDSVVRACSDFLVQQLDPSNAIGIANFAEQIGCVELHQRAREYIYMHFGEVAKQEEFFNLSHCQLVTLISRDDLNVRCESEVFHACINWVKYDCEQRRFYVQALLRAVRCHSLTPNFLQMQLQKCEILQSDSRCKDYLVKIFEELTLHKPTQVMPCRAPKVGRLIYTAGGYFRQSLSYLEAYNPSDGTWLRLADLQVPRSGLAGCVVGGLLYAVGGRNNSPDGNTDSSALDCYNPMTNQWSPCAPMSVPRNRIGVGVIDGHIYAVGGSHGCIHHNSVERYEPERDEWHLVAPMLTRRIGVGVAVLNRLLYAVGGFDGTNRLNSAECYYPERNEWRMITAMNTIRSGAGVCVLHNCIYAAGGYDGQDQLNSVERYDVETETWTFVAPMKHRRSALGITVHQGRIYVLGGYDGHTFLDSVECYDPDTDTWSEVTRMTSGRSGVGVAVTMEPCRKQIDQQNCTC
Conditions: not given
The molecule `CCCCCCCCCCCC(=O)N[C@H]1C[C@H]2C(=O)N[C@@H](CCC(N)=O)C(=O)N[C@H]3CSCc4ccccc4CSC[C@H](NC(=O)[C@H](CCC(=O)O)NC(=O)CNC(=O)[C@H]([C@@H](C)O)NC(=O)[C@H](CCC(=O)O)NC(=O)[C@@H]4CCCN4C(=O)[C@H](CC(=O)O)NC3=O)C(=O)N[C@@H](CC(C)C)C(=O)N3CCC[C@@H]3C(=O)N2C1` [Example 85, {[&^1Pro((4S)-NH-Lauryl)-Gln-Cys(&^2)-Asp-Pro-Glu-Thr-Gly-Glu-Cys(&^3)-Leu-D-Pro&^1][&^2(1,2-phenylenediyl)dimethylene&^3]}] displayed an IC50 of less than 1 nM.

`CC(C)C[C@@H]1NC(=O)[C@@H]2CCCN2C(=O)[C@H](CC(C)C)NC(=O)[C@@H]2CSCc3cccc(c3)CSC[C@H](NC(=O)[C@H](CCC(N)=O)NC1=O)C(=O)N[C@@H](CC(=O)O)C(=O)N[C@@H](CCC(=O)O)C(=O)N[C@@H](CCC(=O)O)C(=O)N[C@@H]([C@@H](C)O)C(=O)NCC(=O)N[C@@H](CCC(=O)O)C(=O)N2` [Example 4, {[&^1Leu-Gln-Cys(&^2)-Asp-Glu-Glu-Thr-Gly-Glu-Cys(&^3)-Leu-Pro&^1][&^2(1,3-phenylenediyl)dimethylene&^3]}] (cyclo(CDEETGECLPLQ); linker 1-8 via mXylylene) registered a concentration for half-maximal inhibition (IC50) of less than 1 nM. Still for that read-out and setting: in the case of `CCCCCCCCCCCCCCCCCC(=O)N[C@H]1C[C@H]2C(=O)N[C@@H](CCC(N)=O)C(=O)N[C@H]3CSCc4ccccc4CSC[C@H](NC(=O)[C@H](CCC(=O)O)NC(=O)CNC(=O)[C@H]([C@@H](C)O)NC(=O)[C@H](CCC(=O)O)NC(=O)[C@@H]4C[C@H](F)CN4C(=O)[C@H](CC(=O)O)NC3=O)C(=O)N[C@@H](CC(C)C)C(=O)N3CCC[C@@H]3C(=O)N2C1` [Example 72, {[&^1Pro((4S)-NH-Stearyl)-Gln-Cys(&^2)-Asp-Pro((4S)-F)-Glu-Thr-Gly-Glu-Cys(&^3)-Leu-D-Pro&^1][&^2(1,2-phenylenediyl)dimethylene&^2]}] it was 1 to 100 nM. For `CCCCCCCCCCCCCCCCCCCC(=O)N[C@H]1C[C@H]2C(=O)N[C@@H](CCC(N)=O)C(=O)N[C@H]3CSCC4(COC4)CSC[C@H](NC(=O)[C@H](CCC(=O)O)NC(=O)CNC(=O)[C@H]([C@@H](C)O)NC(=O)[C@H](CCC(=O)O)NC(=O)[C@@H]4CCCN4C(=O)[C@H](CC(=O)O)NC3=O)C(=O)N[C@@H](CC(C)C)C(=O)N3CCC[C@@H]3C(=O)N2C1` [Example 95, {[&^1Pro((4S)-NH-Arachidyl)-Gln-Cys(&^2)-Asp-Pro-Glu-Thr-Gly-Glu-Cys(&^3)-Leu-D-Pro&^1][&^2(3,3-oxetanediyl)dimethylene&^3]}], the half-maximal inhibitory concentration (IC50) is less than 1 nM. Still for that read-out and setting: in the case of `CC(=O)N[C@H]1C[C@H]2C(=O)N[C@@H](CCC(N)=O)C(=O)N[C@H]3CSCc4ccccc4CSC[C@H](NC(=O)[C@H](CCC(=O)O)NC(=O)CNC(=O)[C@H]([C@@H](C)O)NC(=O)[C@H](CCC(=O)O)NC(=O)[C@@H]4CCCN4C(=O)[C@H](CC(=O)O)NC3=O)C(=O)N[C@@H](CC(C)C)C(=O)N3CCC[C@@H]3C(=O)N2C1` [Example 64, {[&^1Pro((4S)-NH-Acetyl)-Gln-Cys(&^2)-Asp-Pro-Glu-Thr-Gly-Glu-Cys(&^3)-Leu-D-Pro&^1][&^2(1,2-phenylenediy1)dimethylene&^3]}] it was less than 1 nM; in that of `CCCCCCCCCCCCCCCCCCC(=O)N[C@H]1C[C@H]2C(=O)N[C@@H](CCC(N)=O)C(=O)N[C@H]3CSCc4ccccc4CSC[C@H](NC(=O)[C@H](CCC(=O)O)NC(=O)CNC(=O)[C@H]([C@@H](C)O)NC(=O)[C@H](CCC(=O)O)NC(=O)[C@@H]4CCCN4C(=O)[C@H](CC(=O)O)NC3=O)C(=O)N[C@@H](CC(C)C)C(=O)N3CCC[C@@H]3C(=O)N2C1` [Example 98, {[&^1Pro((4S)-NH-Nonadecanoyl)-Gln-Cys(&^2)-Asp-Pro-Glu-Thr-Gly-Glu-Cys(&^3)-Leu-D-Pro&^1][&^2(1,2-phenylenediyl)dimethylene&^3]}], less than 1 nM.

Still in this experiment, the particulars now being: HTRF (TR-FRET); displacement of ETGE-biotin from Keap1-MBP; values banded into grades; read-out: Binding (IC50) ETGE-Keap1.
As to `CC(=O)N[C@H]1CSCc2ccccc2CSC[C@@H](C(N)=O)NC(=O)[C@H](CCC(=O)O)NC(=O)CNC(=O)[C@H]([C@@H](C)O)NC(=O)[C@H](CCC(=O)O)NC(=O)[C@H](C)NC(=O)[C@H](CC(=O)O)NC1=O` [Example 20, {[Acetyl-Cys(&^1)-Asp-Ala-Glu-Thr-Gly-Glu-Cys(&^2)-NH2][&^1(1,2-phenylenediyl)dimethylene&^2]}], the half-maximal inhibitory concentration (IC50) was 1 to 100 nM. Same read-out and setting: in the case of `CC(C)C[C@H](NC(=O)[C@H](CC(C)C)NC(=O)[C@@H]1CSCc2cc3ccccc3cc2CSC[C@H](NC(=O)[C@H](CC(C)C)NC(=O)[C@@H](N)CC(C)C)C(=O)N[C@@H](CC(=O)O)C(=O)N2CCC[C@H]2C(=O)N[C@@H](CCC(=O)O)C(=O)N[C@@H]([C@@H](C)O)C(=O)NCC(=O)N[C@@H](CCC(=O)O)C(=O)N1)C(=O)NCCC(=O)N[C@@H](CCCNC(=N)N)C(=O)N[C@@H](CCCCN)C(=O)N[C@@H](CCCCN)C(=O)N[C@@H](CCCNC(=N)N)C(=O)N[C@@H](CCCNC(=N)N)C(=O)N[C@@H](CCC(N)=O)C(=O)N[C@@H](CCCNC(=N)N)C(=O)N[C@@H](CCCNC(=N)N)C(=O)N[C@@H](CCCNC(=N)N)C(N)=O` [Example 58] it was less than 1 nM.

As for `CCCCCCCCCCCCCCCCCC(=O)N[C@H]1C[C@H]2C(=O)N[C@@H](CCC(N)=O)C(=O)N[C@H]3CSCc4ccccc4CSC[C@H](NC(=O)[C@H](CCC(=O)O)NC(=O)CNC(=O)[C@H]([C@@H](C)O)NC(=O)[C@H](CCC(=O)O)NC(=O)[C@H](CCCNC(=N)N)NC(=O)[C@H](CC(=O)O)NC3=O)C(=O)N[C@@H](CC(C)C)C(=O)N3CCC[C@@H]3C(=O)N2C1` [Example 70, {[&^1Pro((4S)-NH-Stearyl)-Gln-Cys(&^2)-Asp-Arg-Glu-Thr-Gly-Glu-Cys(&^3)-Leu-D-Pro&^1][&^2(1,2-phenylenediyl)dimethylene&^2]}] (cyclo(CDRETGECL[dP][X1](Stearoyl)Q); linker 1-8 via oXylylene), the IC50 was less than 1 nM. As for `CCCCCCCCCCCCCCCCCC(=O)NCCC(=O)N[C@@H](CC(C)C)C(=O)N[C@@H](CCC(N)=O)C(=O)N[C@H]1CSCc2nc3ccccc3nc2CSC[C@@H](C(=O)N[C@@H](CC(C)C)C(=O)N2CCC[C@H]2C(N)=O)NC(=O)[C@H](CCC(=O)O)NC(=O)CNC(=O)[C@H]([C@@H](C)O)NC(=O)[C@H](CCC(=O)O)NC(=O)[C@@H]2CCCN2C(=O)[C@H](CC(=O)O)NC1=O` [Example 61, {[Stearyl-βAla-Leu-Gln-Cys(&^1)-Asp-Pro-Glu-Thr-Gly-Glu-Cys(&^2)-Leu-Pro-NH2][&^1(quinoxaline)2,3-diyldimethylene&^2]}] ({Stearoyl-βAla}-LQCDPETGECLP-NH2; linker 3-10 via X6), the 50% inhibitory concentration (IC50) is 1 to 100 nM.

`CC(=O)N[C@H]1CSCc2nc3ccccc3nc2CSC[C@@H](C(N)=O)NC(=O)[C@H](CCC(=O)O)NC(=O)CNC(=O)[C@H]([C@@H](C)O)NC(=O)[C@H](CCC(=O)O)NC(=O)[C@H](CCC(=O)O)NC(=O)[C@H](CC(=O)O)NC1=O` [Example 26, {[Acetyl-Cys(&^1)-Asp-Glu-Glu-Thr-Gly-Glu-Cys(&^2)-NH2][&^1(quinoxaline)2,3-diyldimethylene&^2]}] (Ac-CDEETGEC-NH2; linker 1-8 via X6): the IC50 was 1 to 100 nM. On the same count and under the same terms, in the case of `CC(C)C[C@H](NC(=O)[C@@H]1CSCc2ccc(cc2)CSC[C@H](NC(=O)[C@H](CCC(N)=O)NC(=O)[C@@H](N)CC(C)C)C(=O)N[C@@H](CC(=O)O)C(=O)N[C@@H](CCC(=O)O)C(=O)N[C@@H](CCC(=O)O)C(=O)N[C@@H]([C@@H](C)O)C(=O)NCC(=O)N[C@@H](CCC(=O)O)C(=O)N1)C(=O)N1CCC[C@H]1C(=O)O` [Example 2, {[H-Leu-Gln-Cys(&^1)-Asp-Glu-Glu-Thr-Gly-Glu-Cys(&^2)-Leu-Pro-OH][&^1(1,4-phenylenediyl)dimethylene&^2]}] (H-LQCDEETGECLP-OH; linker 3-10 via pXylylene) it was 100 to 5000 nM. With `CC(C)C[C@H](NC(=O)[C@@H]1CSCc2cccc(c2)CSC[C@H](NC(=O)[C@H](CCC(N)=O)NC(=O)[C@@H](N)CC(C)C)C(=O)N[C@@H](CC(=O)O)C(=O)N[C@@H](CCC(=O)O)C(=O)N[C@@H](CCC(=O)O)C(=O)N[C@@H]([C@@H](C)O)C(=O)NCC(=O)N[C@@H](CCC(=O)O)C(=O)N1)C(=O)N1CCC[C@H]1C(=O)O` [Example 3, {[H-Leu-Gln-Cys(&^1)-Asp-Glu-Glu-Thr-Gly-Glu-Cys(&^2)-Leu-Pro-OH][&^1(1,3-phenylenediyl)dimethylene&^2]}] (H-LQCDEETGECLP-OH; linker 3-10 via mXylylene), the half-inhibitory concentration (IC50) lay within 1 to 100 nM.

Turning to `CCCCCCCCCCCCCCCCCC(=O)N[C@H]1C[C@H]2C(=O)N[C@@H](CCC(N)=O)C(=O)N[C@H]3CSCc4ccccc4CSC[C@H](NC(=O)[C@H](CCC(=O)O)NC(=O)CNC(=O)[C@H]([C@@H](C)O)NC(=O)[C@H](CCC(=O)O)NC(=O)[C@@H]4CSCN4C(=O)[C@H](CC(=O)O)NC3=O)C(=O)N[C@@H](CC(C)C)C(=O)N3CCC[C@@H]3C(=O)N2C1` [Example 78, {[&^1Pro((4S)-NH-Stearyl)-Gln-Cys(&^2)-Asp-Thz-Glu-Thr-Gly-Glu-Cys(&^3)-Leu-D-Pro&^1][&^2(1,2-phenylenediyl)dimethylene&^3]}], the IC50 is less than 1 nM.

Turning to `CC(C)C[C@H](NC(=O)[C@@H]1CSCc2cc3ccccc3cc2CSC[C@H](NC(=O)[C@H](CCC(N)=O)NC(=O)[C@@H](N)CC(C)C)C(=O)N[C@@H](CC(=O)O)C(=O)N2CCC[C@H]2C(=O)N[C@@H](CCC(=O)O)C(=O)N[C@@H]([C@@H](C)O)C(=O)NCC(=O)N[C@@H](CCC(=O)O)C(=O)N1)C(=O)N1CCC[C@H]1C(=O)NCCC(=O)N[C@@H](CCCNC(=N)N)C(=O)N[C@@H](CCCNC(=N)N)C(=O)N[C@@H](CCCNC(=N)N)C(=O)N[C@@H](CCCNC(=N)N)C(=O)N[C@@H](CCCNC(=N)N)C(=O)N[C@@H](CCCNC(=N)N)C(=O)N[C@@H](CCCNC(=N)N)C(=O)N[C@@H](CCCNC(=N)N)C(=O)N[C@@H](CCCNC(=N)N)C(=O)N[C@@H](CCCNC(=N)N)C(N)=O` [Example 69, {[H-Leu-G1n-Cys(&^1)-Asp-Pro-Glu-Thr-Gly-Glu-Cys(&^2)-Leu-Pro-βAla-Arg10-NH2][&^1(naphthalene)2,3-diyldimethylene&^2]}], the 50% inhibitory concentration (IC50) was in the range of 1 to 100 nM.

What is called IC50 is the concentration that gives 50% inhibition.

For the origin of these results see patent publication US20200255478A1, “NOVEL COMPOUNDS ACTIVATING THE NRF2 PATHWAY” (Almirall, S.A., priority 2017, published 2020).
